The structures appear in SMILES notation. Active and inactive are the calls of the source. The calls are words filed in the database; no cut-off is given here.

From ChEMBL document CHEMBL5226375, “Synthesis and Comprehensive in Vivo Activity Profiling of Olean-12-en-28-ol, 3β-Pentacosanoate in Experimental Autoimmune Encephalomyelitis: A Natural Remyelinating and Anti-Inflammatory Agent” (J Nat Prod, 2023) come the findings set out here.

Data set [1] in a line: Stability of the compound in THF/phosphate buffer at pH 2.5 incubated for 2 hrs under stirring conditions by 1H-NMR analysis. The class given is physicochemical. The settings on record: pH 2.5, 2 h.
Data set [2] in a line: Stability of the compound in THF/phosphate buffer at pH 6.5 incubated for 2 hrs under stirring conditions by 1H-NMR analysis. Type of data set: physicochemical. The settings on record: pH 6.5, 2 h.
Data set [3] deals with Mus musculus. The data set is described as follows: Anti-inflammatory activity against MOG35-55-induced experimental autoimmune encephalomyelitis C57BL/6 mouse model assessed as fold change in CXCL10 gene expression in brain at 300 mg/kg/day, ig for 14 days starting from 12th day of immunization by RT-qPCR analysis relative to control. The class given is functional. The following applies: time 14 day.

Data set [4] has as its system Mus musculus. As to the kind of experiment: Anti-inflammatory activity against MOG35-55-induced experimental autoimmune encephalomyelitis C57BL/6 mouse model assessed as fold change in TNF-alpha gene expression in brain at 300 mg/kg/day, ig for 14 days starting from 12th day of immunization by RT-qPCR analysis relative to control. The class given is functional. The settings on record: time 14 day. (In general: Quantitative PCR measures a nucleic acid by following its amplification.)

The test system of data set [5] is Mus musculus. As to the kind of experiment: Anti-inflammatory activity against MOG35-55-induced experimental autoimmune encephalomyelitis C57BL/6 mouse model assessed as fold change in BCL2 gene expression in brain at 300 mg/kg/day, ig for 14 days starting from 12th day of immunization by RT-qPCR analysis relative to control. The settings on record: time 14 day. Type of data set: functional.

The subject of data set [6] is Mus musculus. The data set is described as follows: Anti-inflammatory activity against MOG35-55-induced experimental autoimmune encephalomyelitis C57BL/6 mouse model assessed as fold change in APP gene expression in brain at 300 mg/kg/day, ig for 14 days starting from 12th day of immunization by RT-qPCR analysis relative to control. Type of data set: functional. The settings on record: time 14 day.

In data set [7] the test system is Mus musculus. As to the kind of experiment: Anti-inflammatory activity against MOG35-55-induced experimental autoimmune encephalomyelitis C57BL/6 mouse model assessed as fold change in GFAP gene expression in brain at 300 mg/kg/day, ig for 14 days starting from 12th day of immunization by RT-qPCR analysis relative to control. Type of data set: functional. The following applies: time 14 day.

Data set [8] has as its system Mus musculus. As to the kind of experiment: Anti-inflammatory activity against MOG35-55-induced experimental autoimmune encephalomyelitis C57BL/6 mouse model assessed as reduction in IL-6 protein expression in brain at 300 to 600 mg/kg/day, ig for 14 days starting from 12th day of immunization by western blot analysis. The class given is functional, organism-based. The settings on record: dose 300-600 mg/kg/day, time 14.0 day. For orientation: A western blot detects proteins with antibodies after separation by electrophoresis.

Data set [9] has as its system Mus musculus. The data set is described as follows: Anti-inflammatory activity against MOG35-55-induced experimental autoimmune encephalomyelitis C57BL/6 mouse model assessed as reduction in CCL5 protein expression in brain at 300 to 600 mg/kg/day, ig for 14 days starting from 12th day of immunization by western blot analysis. The following applies: dose 300-600 mg/kg/day, time 14.0 day. The class given is functional, organism-based.

The test system of data set [10] is Mus musculus. As to the kind of experiment: Anti-inflammatory activity against MOG35-55-induced experimental autoimmune encephalomyelitis C57BL/6 mouse model assessed as proportion of brain infiltrating cells expressing CD45+/CD11b/c high surface markers at 600 mg/kg/day, ig for 14 days starting from 12th day of immunization by flow cytometry (reference value: 87.7%). The following applies: time 14 day. Type of data set: functional.

The subject of data set [11] is Mus musculus. As to the kind of experiment: Anti-inflammatory activity against MOG35-55-induced experimental autoimmune encephalomyelitis C57BL/6 mouse model assessed as reduction in serum Th1 cytokine level by measuring reduction in IFNG level at 600 mg/kg/day, ig for 14 days starting from 12th day of immunization by ELISA. The class given is functional, organism-based. The settings on record: time 14.0 day. In general terms: ELISA stands for enzyme-linked immunosorbent assay.

In data set [12] the test system is Mus musculus. The data set is described as follows: Anti-inflammatory activity against MOG35-55-induced experimental autoimmune encephalomyelitis C57BL/6 mouse model assessed as methylation of CpG sites of […] gene promoter in brain at 600 mg/kg, ig for 14 days starting from 12th day of immunization by PCR analysis (reference value: 13.1 +/-8%). The settings on record: time 14 day. The class given is functional.

Data set [13] deals with Mus musculus. As to the kind of experiment: Anti-inflammatory activity against MOG35-55-induced experimental autoimmune encephalomyelitis C57BL/6 mouse model assessed as methylation of CpG sites of IL18 gene promoter in brain at 600 mg/kg, ig for 14 days starting from 12th day of immunization by PCR analysis (reference value: 29.2 +/-8%). Type of data set: functional. The following applies: time 14 day.

The test system of data set [14] is Mus musculus. The data set is described as follows: Anti-inflammatory activity against MOG35-55-induced experimental autoimmune encephalomyelitis C57BL/6 mouse model assessed as methylation of CpG sites of TGFB1 gene promoter in brain at 600 mg/kg, ig for 14 days starting from 12th day of immunization by PCR analysis (reference value: 18.3 +/-4%). The class given is functional. The following applies: time 14 day.

Data set [15] relates to Mus musculus. As to the kind of experiment: Anti-inflammatory activity against MOG35-55-induced experimental autoimmune encephalomyelitis C57BL/6 mouse model assessed as fold change in IL6 gene expression in brain at 0.3 mg/kg/day, ig for 14 days starting from 12th day of immunization by RT-qPCR analysis relative to control. The class given is functional. The settings on record: time 14 day.

Data set [16] deals with Mus musculus. The data set is described as follows: Anti-inflammatory activity against MOG35-55-induced experimental autoimmune encephalomyelitis C57BL/6 mouse model assessed as fold change in YWHAH gene expression in brain at 0.3 mg/kg/day, ig for 14 days starting from 12th day of immunization by RT-qPCR analysis relative to control. Type of data set: functional. The settings on record: time 14 day.

Data set [17] deals with Mus musculus. As to the kind of experiment: Anti-inflammatory activity against MOG35-55-induced experimental autoimmune encephalomyelitis C57BL/6 mouse model assessed as fold change in CD4 gene expression in brain at 0.15 mg/kg/day, ig for 14 days starting from 12th day of immunization by RT-qPCR analysis relative to control. The settings on record: time 14 day. Type of data set: functional.

Data set [18] deals with Mus musculus. As to the kind of experiment: Anti-inflammatory activity against MOG35-55-induced experimental autoimmune encephalomyelitis C57BL/6 mouse model assessed as fold change in BCL2 gene expression in brain at 0.15 mg/kg/day, ig for 14 days starting from 12th day of immunization by RT-qPCR analysis relative to control. Type of data set: functional. The settings on record: time 14 day.

Data set [19] has as its system Mus musculus. As to the kind of experiment: Anti-inflammatory activity against MOG35-55-induced experimental autoimmune encephalomyelitis C57BL/6 mouse model assessed as fold change in GFAP gene expression in brain at 0.15 mg/kg/day, ig for 14 days starting from 12th day of immunization by RT-qPCR analysis relative to control. The class given is functional. The settings on record: time 14 day.

Data set [20] relates to Mus musculus. The data set is described as follows: Anti-inflammatory activity against MOG35-55-induced experimental autoimmune encephalomyelitis C57BL/6 mouse model assessed as upregulation of MBP protein expression in brain at 0.15 to 0.3 mg/kg/day, ig for 14 days starting from 12th day of immunization by western blot analysis. Type of data set: functional, organism-based. The settings on record: dose 0.15-0.3 mg/kg/day, time 14.0 day.

Data set [21] has as its system Mus musculus. The data set is described as follows: Anti-inflammatory activity against MOG35-55-induced experimental autoimmune encephalomyelitis C57BL/6 mouse model assessed as reduction in serum […] cytokine level by measuring reduction in IL-17 level at 0.3 mg/kg/day, ig for 14 days starting from 12th day of immunization by ELISA. The class given is functional, organism-based. The following applies: time 14.0 day.

Data set [22] has as its system Mus musculus. The data set is described as follows: Anti-inflammatory activity against MOG35-55-induced experimental autoimmune encephalomyelitis C57BL/6 mouse model assessed as reduction in serum monokines level by measuring reduction in IL-1B level at 0.3 mg/kg/day, ig for 14 days starting from 12th day of immunization by ELISA. Type of data set: functional, organism-based. The following applies: time 14.0 day.

The subject of data set [23] is Mus musculus. As to the kind of experiment: Anti-inflammatory activity against MOG35-55-induced experimental autoimmune encephalomyelitis C57BL/6 mouse model assessed as methylation of CpG sites of […] gene promoter in brain at […], ig for 14 days starting from 12th day of immunization by PCR analysis (reference value: 45 +/-7%). The class given is functional. The settings on record: time 14 day.

For `CCCCCCCCCCCCCCCCCCCCCCCCC(=O)O[C@H]1CC[C@]2(C)[C@H]3CC=C4[C@@H]5CC(C)(C)CC[C@]5(CO)CC[C@@]4(C)[C@]3(C)CC[C@H]2C1(C)C`, the Stability entry in data set [1] and in data set [2] was “Stable” in each case. The “fold change (FC)” value in data set [3] was 3.24; in data set [4], 1.76; in [5] it was 1.76; in data set [6], -1.56; in data set [7], 1.17. Moreover, the result in [8], in [9] and in data set [11] was Active. The Activity in [10] was determined as 66.2%; in data set [12], 15.2%; in data set [13] it was 40.5%; in data set [14] it was 39.8%.

Consider `CCCCCCCCc1ccc(CCC(N)(CO)CO)cc1` [FINGOLIMOD], for which the “fold change (FC)” value in data set [15] is -2.28; in data set [16], -1.26; in data set [17], 3.06; in [18], 2.24; in [19], 2.62. Also, the outcome in data set [20] was inactive. Also, the outcome in data set [21] and in [22] was Active. Further, in [23], the Activity amounted to 44.9%.
